Assay results taken from patent US20090221505A1, “COMPOSITIONS AND METHODS RELATED TO SYNCHRONOUS SELECTION OF HOMING PEPTIDES FOR MULTIPLE TISSUES BY IN VIVO PHAGE DISPLAY” (priority 2004, published 2009).
Entries after “also recorded” stand apart in the source; their conditions may differ. Where no end group is shown, it is not given here.

How the values were obtained:
[1] = test system: COS-1 cells transfected with PRLR; assay: Immunofluorescence of phage binding and internalization into COS-1 cells transfected with PRLR; type: cell-based; settings: 10^9 TU phage
Procedure: (§1) Immunolocalization Immunofluorescent detection of PRLR expression in COS-1 cells was performed by using anti-PRLR antibody MAI-610 (Affinity Bioreagents) diluted to 20 μg/ml and a secondary FITC-conjugated goat anti-mouse antibody F-0257 (Sigma) at 1 100 dilution. For validating phage binding and internalization into COS-1 cells transfected with PRLR, 10^9 TU of phage displaying PRLR-binding or mutant peptides were subjected to cell binding and internalization as described (Zurita et al, 2004). Immunodetection of cell-associated phage was performed with anti-fd antibody B-7786 (Sigma) at 1 500 dilution and a secondary Cy3-conjugated donkey anti-rabbit antibody 711-165-152 (Jackson) at 3 μg/ml. For phage-peptide immunolocalization in situ, 10^10 TU of iv-injected phage were let circulate for 5 min. Immunohistochemistry on formalin-fixed, paraffin-embedded mouse tissue sections was performed as described (Paqualini et al, 2001, Arap et al, 2002) by using anti-fd antibody B-7786 at 1 1,000 dilution and the LSAB+ peroxidase kit (DAKO)

[2] = test system: COS-1 cells transfected with PRLR; assay: Phage binding to COS-1 cells transfected with PRLR (BRASIL); type: cell-based; settings: for Binding of phage to PRLR-transfected COS-1 cells (in words) / Isolation by biopanning on cell-surface expressed PRLR: BRASIL; for Binding of phage to PRLR-transfected COS-1 cells (in words): FIG. 5A-5B; for Isolation by biopanning on cell-surface expressed PRLR: pancreas-homing phage pool (rounds 2 and 3), single round
Procedure: (§2) Phage-peptide binding to PRLR To identify peptides binding to PRLR, phage clones isolated from the pancreas in rounds 2 and 3 of the screening were individually amplified and pooled. For panning on immobilized PRLR, 10^9 TU of the mixed phage clones were incubated overnight at 4° C. with […] of purified recombinant rabbit PRLR (Protein Laboratories Rehovot, Israel), or BSA control, immobilized on plastic. Unbound phage were extensively washed off with PBS, and then the bound phage were recovered by infecting host K91 E. coli directly on the plate. For panning on cell surface-expressed PRLR, COS-1 cells (ATCC) were transiently transfected with pECE-PRLR as described (Wang et al, 1997) and subjected to biopanning with the amplified pancreas-isolated phage using the BRASIL protocol (Giordano et al, 2001). In each biopanning, bound phage were selected for tetracycline resistance, quantified by infecting host K91 E. coli and sequenced. […] Phage displaying forward (CRVASVLPC) (SEQ ID NO 30), reverse CPLVSAVRC(SEQ ID NO 34), and the alanine point mutants were titered in-parallel with insertless fd-tet phage and tested for binding to COS-1 cells transfected with PRLR by using the BRASIL method (Giordano et al, 2001). COS-1 cells not transfected with PRLR served as a negative control.

[3] = test system: Pancreas; assay: Anti-phage immunohistochemistry after iv phage injection, pancreas; type: in vivo, mouse
Procedure: as §1

[4] = test system: skeletal muscle; assay: Anti-phage immunohistochemistry after iv phage injection, skeletal muscle; type: in vivo, mouse
Procedure: as §1

[5] = molecular target: T1, purified recombinant rabbit PRLR (Oryctolagus cuniculus, UniProt P14787); assay: Panning of pancreas-homing phage on immobilized PRLR (BSA control); type: binding; settings: pancreas-homing phage pool (rounds 2 and 3), single round
T1 construct: purchased Protein Laboratories Rehovot, Israel
T1 sequence (P14787 25-234 limits assumed): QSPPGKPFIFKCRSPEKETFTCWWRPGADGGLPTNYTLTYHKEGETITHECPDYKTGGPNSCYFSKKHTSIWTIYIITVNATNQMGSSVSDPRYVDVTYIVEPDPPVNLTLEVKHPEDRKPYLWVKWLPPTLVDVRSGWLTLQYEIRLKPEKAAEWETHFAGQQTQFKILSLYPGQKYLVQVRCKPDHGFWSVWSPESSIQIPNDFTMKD
Procedure: as §2

[6] = molecular target: PRLR (prolactin receptor) expressed on the surface of COS-1 cells transfected with pECE-PRLR; assay: phage binding to prlR-transfected COS-1 cells
PRLR (prolactin receptor) expressed on the surface of COS-1 cells transfected with pECE-PRLR, sequence (P05710 20-610): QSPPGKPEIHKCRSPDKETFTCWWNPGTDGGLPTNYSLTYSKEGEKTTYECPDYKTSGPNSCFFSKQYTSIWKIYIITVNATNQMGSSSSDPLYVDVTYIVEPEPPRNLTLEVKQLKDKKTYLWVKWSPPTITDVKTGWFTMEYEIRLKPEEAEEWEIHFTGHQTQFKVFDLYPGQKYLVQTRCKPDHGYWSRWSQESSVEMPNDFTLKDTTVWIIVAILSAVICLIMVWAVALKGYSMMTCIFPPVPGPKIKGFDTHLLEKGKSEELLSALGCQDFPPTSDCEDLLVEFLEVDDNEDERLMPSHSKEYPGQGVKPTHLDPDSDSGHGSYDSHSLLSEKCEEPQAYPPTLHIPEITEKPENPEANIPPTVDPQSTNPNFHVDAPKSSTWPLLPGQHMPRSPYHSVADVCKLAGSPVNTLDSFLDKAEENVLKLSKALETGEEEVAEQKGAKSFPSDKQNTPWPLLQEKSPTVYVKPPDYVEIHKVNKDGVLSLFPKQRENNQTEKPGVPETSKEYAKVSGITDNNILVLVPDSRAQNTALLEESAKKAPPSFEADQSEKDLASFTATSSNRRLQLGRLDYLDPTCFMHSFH

[7] = molecular target: PRLR (prolactin receptor) expressed on the surface of COS-1 cells transfected with pECE-PRLR; assay: phage binding to PRLR-transfected COS-1 cells, BRASIL

CPLVSAVRC
Phage binding, internalization and co-localization with PRLR-expressing cells [1]: bound and internalized specifically by cells expressing PRLR | Binding of phage to PRLR-transfected COS-1 cells (in words) [2]: did not significantly decrease its binding to PRLR

CRVASVLPC [tested as phage clone]
Phage binding, internalization and co-localization with PRLR-expressing cells [1]: co-localized; also recorded: bound and internalized specifically by cells expressing PRLR | Binding of phage to PRLR-transfected COS-1 cells (in words) [2]: Specific binding | Binding of phage to COS-1 cells transfected with prlR relative to background binding by controls ([2]; controls: muscle-homing phage or insertless phage): five | Binding of phage to COS-1 cells transfected with PRLR relative to nonspecific binding to non-transfected COS-1 cells ([2]; negative control: non-transfected COS-1 cells, FIG. 5A): 9 fold | Phage localization in pancreas [3]: localized to pancreatic blood vessels and the islets of Langerhans; also recorded: to pancreatic blood vessels and the pancreatic islet cells | Phage localization in skeletal muscle [4]: but not to skeletal muscle

CYAIGSFDC (phage-displayed) [control muscle-homing phage clone displaying …]
Phage localization in pancreas [3]: but not in the pancreas | Phage localization in skeletal muscle [4]: found predominantly in the vasculature of skeletal muscle; also recorded: found predominantly in the vasculature of the skeletal muscle

LPTLSLN (not fully specified)
Isolation by biopanning on cell-surface expressed PRLR [2]: isolated by biopanning on both in vitro immobilized and cell-surface expressed PRLR | Isolation by biopanning on in vitro immobilized PRLR [5]: isolated by biopanning on both in vitro immobilized and cell-surface expressed PRLR

QVHSSAY (not fully specified)
Isolation by biopanning on cell-surface expressed PRLR [2]: isolated by biopanning on both in vitro immobilized and cell-surface expressed PRLR | Isolation by biopanning on in vitro immobilized PRLR [5]: isolated by biopanning on both in vitro immobilized and cell-surface expressed PRLR

SGATGRA (not fully specified)
Isolation by biopanning on cell-surface expressed PRLR [2]: isolated by biopanning on both in vitro immobilized and cell-surface expressed PRLR | Isolation by biopanning on in vitro immobilized PRLR [5]: isolated by biopanning on both in vitro immobilized and cell-surface expressed PRLR

SGPTGRA (not fully specified)
Isolation by biopanning on cell-surface expressed PRLR [2]: isolated by biopanning on both in vitro immobilized and cell-surface expressed PRLR | Isolation by biopanning on in vitro immobilized PRLR [5]: isolated by biopanning on both in vitro immobilized and cell-surface expressed PRLR

VFSDYKR (not fully specified)
Isolation by biopanning on cell-surface expressed PRLR [2]: isolated by biopanning on both in vitro immobilized and cell-surface expressed PRLR | Isolation by biopanning on in vitro immobilized PRLR [5]: isolated by biopanning on both in vitro immobilized and cell-surface expressed PRLR

B1: …-phage (phage displaying the … motif, SEQ ID NO 30) (peptide, part only; not given: phage coat protein, part only)
peptide, part: CRVASVLPC
modifications: not fully specified (bridges); cysteine pairing not given here; also: displayed on filamentous phage (fUSE5)
fold binding over control phage (muscle-homing or insertless) [6]: 5 fold | fold binding over non-transfected COS-1 cells [7]: 9 fold
